Results as given in patent publication US20040266732A1, “Therapeutic agents, methods, and treatments” (priority 2002, published 2004).

Key:
H226 cell cancer tumors = assay: Induced-tumor NOD/SCID mouse model (Example 7); assay type: in vivo, NOD/SCID mice; details: 30 mg/kg intraperitoneal every other day for two weeks
Description: (§1) A standard induced-tumor NOD/SCID mouse model was used to perform this investigation, with the mouse model being based on protocols for human xenograft systems developed at the National Cancer Institute. H226 cell cancer tumors were induced in NOD/SCID mice; tumors at sizes approximately 100 mm^3 were treated with 30 mg/kg MT103 or a control containing only vehicle (2.5% DMSO in distilled water) administered in intraperitoneal injections every other day for two weeks.

[1] = test system: SF-268 Cell Line (Central Nervous System); assay: NCI three cell-line test; assay type: cell-based, human; details: 1(10^−4) Molar in growth medium, percent of growth of untreated control cells
Description: (§2) The testing in this Example was performed by NCI, as per their 3-cell line panel test. The results are reported as the percent of the growth of the treated cells compared to the untreated control cells. The criterion for being an effective compound and for being subjected to further testing is that the tested compound reduce the growth of any one of the three cell lines to approximately 32% or less.
(§3) The methods for conducting the test are described below in Example 3, except that the cells were exposed to a single concentration of MT103, at 1×10^−4 Molar, and colorimetric determinations were made with alamar blue (Biotechniques 21(5):780-782 (1996)).
(§4) Methodology: The NCI conducted a test of the MT103 drug against 60 human cell lines, with a minimum of five concentrations of MT103 at 10-fold dilutions. A 48 hour continuous drug exposure was used, and a sulforhodamine B (SRB) protein assay was used to estimate cell viability and growth. The human tumor cell lines of the cancer screening panel were grown in RPMI 1640 medium containing 5% fetal bovine serum and 2 mM L-glutamine. Cells were inoculated into 96 well microtiter plates in 100 μL at plating densities ranging from 5,000 to 40,000 cells/well depending on the doubling time of individual cell lines. After cell inoculation, the microtiter plates are incubated at 37° C., 5% CO2, 95% air, and 100% relative humidity for 24 h prior to addition of experimental drugs. […]
(§5) Following drug addition, the plates were incubated for an additional 48 h at 37° C., 5% CO2, 95% air, and 100% relative humidity. […] Bound stain was subsequently solubilized with 10 mM trizma base, and the absorbance was read on an automated plate reader at a wavelength of 515 nm. […] Using the seven absorbance measurements (time zero, (Tz), control growth, (C), and test growth in the presence of drug at the five concentration levels (Ti)), the percentage growth was calculated at each of the drug concentrations levels. Percentage growth inhibition was calculated as: […]

[2] = test system: MCF7 Cell line (Breast Cancer); assay: NCI three cell-line test; assay type: cell-based, human; details: 1(10^−4) Molar in growth medium, percent of growth of untreated control cells
Description: as §2, §3, §4, §5

[3] = test system: NCI-H460 Cell Line (Non-Small cell Lung); assay: NCI three cell-line test; assay type: cell-based, human; details: 1(10^−4) Molar in growth medium, percent of growth of untreated control cells
Description: as §2, §3, §4, §5

[4] = test system: NCI-H226 squamous carcinoma; assay: Induced-tumor NOD/SCID mouse model, comparison to cisplatin (Example 8); assay type: in vivo, NOD/SCID mice
Description: as §1
This experiment provides in vivo test data showing that the MT103 family of compounds are effective anti-cancer agents. […] MT103 was tested at three dose levels (60, 120, and 240 mg/kg). Experiments were performed as described in Example 7, NOD/SCID mice, (NOD.CB17-Prkdcscid/J) except that tumors were treated with: one of three doses of MT103 or Cisplatin or sham for 3 intraperitoneal injections (one every 4 days) in a 2-cycle 56-day test that was extended to another cycle to 86 days, as reflected in FIG. 5. Tumor volumes were measured every other day.

[5] = test system: NCI-H226 human non-small cell lung cancer cell line; assay: MTS assay; assay type: cell-based
Description: Methods The MTS assay was employed in the evaluation of these compounds. The cells were harvested, centrifuged to remove the medium, and suspended in fresh complete medium. Samples were taken to determine cell density. The cell count was determined with a Coulter Model Z cell counter and viability was measured with propidium iodine staining call by analysis on Coulter EPICS flow cytometer. The cell line was plated at 5×10^3 cells per well in complete medium. On the following day, the cells were closed with the dilutions of the compound. The plates were analyzed on Day for after initiation of treatment.
The cell line was propagated using standard tissue culture procedures and seeded in microtiter plates prior to dosing. Control groups included a mock treatment, media control, and a positive control (doxorubicin, 1 μM). For each concentration level, eight replicates were treated. The cell line was propagated under sterile conditions at 37° C. in 5% CO2 and 95% humidity. MT103 was stored at 4° C. until dissolved and diluted in complete medium.
Anti-cellular effects of the compound were assessed with the MTS dye conversion assay. MTS was purchased as a single solution, and stored at −20° C. […] The absorbance of formazan in each monolayer was measured at 490 nm on a Coulter microplate reader at four hours after addition of the MTS.

Structure (SMILES): CC1(C)C2CC[C@@]1(CS(=O)(=O)N(C1CCCCC1)C1CCCCC1)C(O)C2 (stereo partly shown) [MT103]
- toxicity (H226 cell cancer tumors): without any evidence of toxicity
- tumor volume (H226 cell cancer tumors; FIG. 3): tumor volume was significantly decreased
- mice body weight (H226 cell cancer tumors; FIG. 4): did not have deleterious effect on mice body weight
- H226 tumor progression (H226 cell cancer tumors; p=0.038): slowed down H226 tumor progression significantly
- Growth, Percentage [1]: 14%
- Growth, Percentage [2]: 0%
- Growth, Percentage [3]: 16%
- blood counts and electrolytes ([4]; 120 mg/kg versus control): no differences in blood counts and electrolytes
- organ appearance ([4]; 120 mg/kg versus control): no observable differences in organ appearance
- improvement compared to cisplatin ([4]; 120 mg/kg, among the range of doses tested): most improvement compared to cisplatin
- mean tumor growth ([4]; 60, 120, 240 mg/kg, 3 intraperitoneal injections (one every 4 days) per cycle, p=0.046, FIG. 5): mean tumor growth slowed
- effect in comparison to cisplatin ([4]; depending upon the dosages administered (60, 120, 240 mg/kg)): comparable or superior effect
- GI50 [5]: 66 µM
